Legend:
GABA = assay: Synaptosomal uptake of GABA; format: cell-based; conditions: unpublished observations
serotonin transporter [1] = molecular target: T1, serotonin transporter (Mus musculus, UniProt Q60857); assay: ^3H-paroxetine binding assay (mouse frontal cortex membranes)
T1 construct: from tissue; host or cells: frontal cortex of female NMRI mice (synaptosomes or membranes)
Method: Female NMRI mice were sacrified by decapitation. […] The homogenate was centrifuged for 10 min at 35000 x g at 4°C. The resulting pellet was resuspended in 40 volumes of buffer and recentrifuged. The pellet was resuspended in TRIS buffer at a protein concentration of 70 µg/ml. Aliquots of membrane suspension were incubated with ^3H-paroxetine (0.2 nM) at room temperature for 60 minutes. Incubation was terminated by rapid filtration through Whatman GF/B glass fiber filters with a Brandel Cell Harvester. […] The filters were washed 7 times with ice cold buffer, dried and the radioactivity was measured by liquid scintillation spectrometry.

serotonin transporter [2] = molecular target: T1, serotonin transporter; assay: Synaptosomal uptake of ^3H-serotonin (mouse cortex synaptosomes); format: cell-based
Method: Synaptosomal preparations from frontal cortex of female NMRI mice were used for serotonin uptake. The tissue was homogenized in ice cold sucrose solution (0.32 M) and diluted with 10 ml of the homogenizing medium. The nuclear fraction was eliminated by centrifugation at 750 x g for 10 min (Beckman Centrifuge, Model J2-21). […] The probes were cooled, immediately filtered through Whatman GF/B glass fiber filters and washed three times with ice cold buffer solution with a Brandel cell harvester. Filters were placed in plastic scintillation vials containing 4 ml Lumasafe scintillation cocktail (Packard). Radioactivity was measured after 12 hours. Nonspecific uptake was determined in parallel probes maintained throughout on ice or containing unlabelled serotonin (1mM serotonin).

norepinephrine = assay: Synaptosomal uptake of norepinephrine; format: cell-based; conditions: unpublished observations
[3] = molecular target: T2, human serotonin transporter (Homo sapiens, UniProt P31645); assay: ^3H-serotonin uptake in platelets; format: cell-based
T2 construct: Blood from normal unmedicated volunteers was anticoagulated; endogenous in cells; host or cells: human platelets from blood of unmedicated volunteers
T2 sequence (P31645 whole entry): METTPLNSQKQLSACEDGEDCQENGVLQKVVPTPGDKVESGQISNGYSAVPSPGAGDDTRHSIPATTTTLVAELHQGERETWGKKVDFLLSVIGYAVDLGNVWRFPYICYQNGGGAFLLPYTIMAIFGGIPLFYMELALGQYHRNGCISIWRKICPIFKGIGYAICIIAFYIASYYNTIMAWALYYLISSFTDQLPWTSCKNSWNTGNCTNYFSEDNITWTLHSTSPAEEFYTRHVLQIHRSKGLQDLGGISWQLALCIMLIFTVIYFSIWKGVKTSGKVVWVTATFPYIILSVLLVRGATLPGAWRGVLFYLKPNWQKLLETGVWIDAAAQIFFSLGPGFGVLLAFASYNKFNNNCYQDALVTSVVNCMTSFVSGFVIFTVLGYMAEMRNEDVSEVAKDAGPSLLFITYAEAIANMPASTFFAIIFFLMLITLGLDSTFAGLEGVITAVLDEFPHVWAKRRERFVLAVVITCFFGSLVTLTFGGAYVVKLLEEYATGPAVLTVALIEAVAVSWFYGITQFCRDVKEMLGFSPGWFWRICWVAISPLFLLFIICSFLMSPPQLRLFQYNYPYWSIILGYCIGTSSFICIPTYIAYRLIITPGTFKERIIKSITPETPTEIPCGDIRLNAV

human platelets = assay: Measuring [Na^+]i with SBFI/AM fluorescence in platelets; format: cell-based; conditions: for [Na^+]i elevated from basal levels up to: highest concentration investigated: 50 µM hyperforin, 10 µM monensin, platelets, SBFI fluorescence
Method: Solutions: The Na^+-HEPES buffer consisted 10 mM HEPES, 1 mM MgSO4, 5 mM KH2PO4, 5 mM KCI and 5 mM Glucose (4). The pH of this buffer was adjusted to 6.5 with NH3 (for storage of platelets) and to 7.4 for the measurement of fluorescence. The K^+ solution was identical except for complete replacement of sodium by potassium.
Preparation of platelets and loading with SBFI/AM: Venous blood (10 ml) was anticoagulated by mixing it with 1.0 ml citrate solution in a S-Monovette. […] Platelet pellets were obtained from PRP by centifugation at 480 x g for 30 min at room temperature. The pellet was resuspended into Sodium-HEPES buffer, pH 6.5 at a final concentration of 3-4 x 10^8 cells/ml. […] Appropriate amounts of this solution were added to the platelets to yield a final concentration of SBFI/AM of 10 µM and platelets were incubated with the dye for 60 min at 37°C in a shaking water bath. Thereafter, platelets were again centrifuged at 480 x g for 30 min at RT. The supernatant was discarded and the platelets were taken up into sodium-HEPES buffer, pH 6.5 at a concentration of 3-4 x 10^9 cells/ml. The platelet suspension was then stored at RT until used for the fluorescence measurements.
Measurement of SBFI/AM Fluorescence: Aliquots of platelet suspension (4 µl) were added to 950 µl of the appropriate buffer. Fluorescence was measured in quartz cuvettes using a SLM-Aminco luminescence spectrometer before and after addition of the tested drugs. […] All measurements were performed without stirring at room temperature.

serotonin transporter [4] = molecular target: T1, serotonin transporter; assay: Kinetic analyses of ^3H-serotonin uptake into mouse cortex synaptosomes; format: cell-based; conditions: hyperforin 2 µM, citalopram 1 nM, monensin concentration not given in the text
dopamine = assay: Synaptosomal uptake of dopamine; format: cell-based; conditions: unpublished observations
L-glutamate = assay: Synaptosomal uptake of L-glutamate; format: cell-based; conditions: unpublished observations

T1 sequence (Q60857 whole entry): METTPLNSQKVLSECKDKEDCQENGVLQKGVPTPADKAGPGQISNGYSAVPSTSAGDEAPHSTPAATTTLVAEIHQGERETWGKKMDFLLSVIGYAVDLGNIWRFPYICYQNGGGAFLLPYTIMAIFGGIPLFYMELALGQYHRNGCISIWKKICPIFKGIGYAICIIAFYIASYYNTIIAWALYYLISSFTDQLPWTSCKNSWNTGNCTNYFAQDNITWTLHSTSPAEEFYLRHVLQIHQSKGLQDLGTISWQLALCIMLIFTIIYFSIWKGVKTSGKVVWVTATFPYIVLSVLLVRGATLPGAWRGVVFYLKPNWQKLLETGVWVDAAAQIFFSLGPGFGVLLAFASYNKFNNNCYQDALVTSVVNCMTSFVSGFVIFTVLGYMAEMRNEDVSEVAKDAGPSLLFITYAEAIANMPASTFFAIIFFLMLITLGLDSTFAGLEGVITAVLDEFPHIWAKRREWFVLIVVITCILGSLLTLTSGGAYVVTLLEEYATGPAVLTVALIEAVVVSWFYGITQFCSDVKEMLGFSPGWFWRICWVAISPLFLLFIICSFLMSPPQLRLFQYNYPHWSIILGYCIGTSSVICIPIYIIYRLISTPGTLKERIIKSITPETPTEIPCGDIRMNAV

For `CC[C@@]1([C@@H]2O[C@@H]([C@H]3O[C@@](O)(CO)[C@H](C)C[C@@H]3C)C[C@@H]2C)CC[C@H]([C@]2(C)CC[C@]3(C[C@H](O)[C@@H](C)[C@@H]([C@@H](C)[C@@H](OC)[C@H](C)C(=O)O)O3)O2)O1` [Monensin], the “IC50 synaptosomal uptake of GABA” value (GABA) was “nanomolar range”, the IC50 (serotonin transporter [1]) was greater than 1000 nM and the IC50 (serotonin transporter [2]) was 47.8 nM. The “IC50 synaptosomal uptake of norepinephrine” value (norepinephrine) was “nanomolar range”, the IC50 ([3]; inhibition of ^3H-serotonin uptake into human platelets, Table 3) was 159 nM and the inhibition at 0.5 µM ([3]; monensin 500 nM, human platelets) was roughly 70%. The “[Na^+]i elevated from basal levels up to” value (human platelets) was 140,0 ± 9,1 mM, the “incubation time to equilibration of [Na^+]i elevation” value (human platelets; monensin, human platelets) was 15 min and the Vmax (serotonin transporter [4]) was 0,065 ± 0,009 pM/min/mg protein. The “IC50 synaptosomal uptake of dopamine” value (dopamine) was “nanomolar range” and the “IC50 synaptosomal uptake of L-glutamate” value (L-glutamate) was “nanomolar range”.

`CC(C)=CCCC1(C)C(CC=C(C)C)CC2(CC=C(C)C)C(=O)C(CC=C(C)C)=C(O)C1(C(=O)C(C)C)C2=O` (centres unmarked) [Hyperforin] was tested, and the “Maximal elevation of [Na^+]i” value (human platelets; 50 µM hyperforin, human platelets) was “about 70 mM”, the “[Na^+]i elevated from basal levels up to” value (human platelets) was 69,0 ± 16,1 mM and the “incubation time to maximal effect on [Na^+]i” value (human platelets; hyperforin, human platelets) was no more than 15 min.
